PubChem BioAssay (NCI)
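Protocol summary: plate cells (96-well), add compound at 5 concentrations, incubate 48 h, interpolate endpoints linearly. GI50 is the concentration that inhibits growth by half. TGI marks complete inhibition of growth.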

Columns and labels:
Experiment in all cases: NCI tumour cell line growth inhibition, 48 h
SNB-75 CNS = tested on: SNB-75 CNS
MCF7 breast = tested on: MCF7 breast
HCT-116 colon = tested on: HCT-116 colon
UO-31 renal = tested on: UO-31 renal
M14 melanoma = tested on: M14 melanoma
BT-549 breast = tested on: BT-549 breast
EKVX NSCLC = tested on: EKVX NSCLC
RXF 393 renal = tested on: RXF 393 renal
KM12 colon = tested on: KM12 colon
A498 renal = tested on: A498 renal

## Cc1cnc(C(=O)Nc2nc3ccc(S(=O)(=O)Nc4ccc(C(C)(C)C)cc4)cc3[nH]2)cn1
SNB-75 CNS
  GI50: 0.216 µM
  TGI: 1.01 µM
MCF7 breast
  GI50: 0.338 µM
  TGI: 11.3 µM
HCT-116 colon
  GI50: 0.498 µM
  TGI: 6.22 µM
UO-31 renal
  GI50: 0.583 µM
  TGI: 19.4 µM
M14 melanoma
  GI50: 0.384 µM
  TGI: 4.43 µM
BT-549 breast
  GI50: 1.12 µM
  TGI: 13.6 µM
EKVX NSCLC
  GI50: 0.789 µM
  TGI: 14 µM
RXF 393 renal
  GI50: 0.312 µM
  TGI: 1.86 µM
KM12 colon
  GI50: 0.349 µM
  TGI: 11 µM
A498 renal
  GI50: 0.288 µM
  TGI: 1.31 µM

## Nc1nc(N)c(CCCCc2ccc([N+](=O)[O-])cc2)c(N)n1
SNB-75 CNS
  TGI: > 100 µM
MCF7 breast
  TGI: > 100 µM
HCT-116 colon
  TGI: > 100 µM
UO-31 renal
  TGI: > 100 µM
M14 melanoma
  TGI: > 100 µM
BT-549 breast
  TGI: > 100 µM
EKVX NSCLC
  TGI: > 100 µM
RXF 393 renal
  TGI: > 100 µM
KM12 colon
  TGI: > 100 µM
A498 renal
  TGI: > 100 µM

## COc1ccc2c(c1O)[C@@]13CCCC=C1[C@@H](C2)N(C)CC3
SNB-75 CNS
  TGI: > 100 µM
MCF7 breast
  TGI: > 100 µM
HCT-116 colon
  TGI: > 100 µM
UO-31 renal
  TGI: > 100 µM
M14 melanoma
  TGI: > 100 µM
BT-549 breast
  TGI: > 100 µM
EKVX NSCLC
  TGI: > 100 µM
RXF 393 renal
  TGI: > 100 µM
KM12 colon
  TGI: > 100 µM

## O=C1c2ccccc2C(=O)c2c1ccc1c3ccccc3n(-c3ccccc3)c21
SNB-75 CNS
  TGI: 44.9 µM
MCF7 breast
  TGI: > 55.6 µM
HCT-116 colon
  TGI: 47.5 µM
UO-31 renal
  TGI: 55.1 µM
M14 melanoma
  TGI: 29.8 µM
BT-549 breast
  TGI: 51.3 µM
EKVX NSCLC
  TGI: 56 µM
RXF 393 renal
  TGI: 34.2 µM
KM12 colon
  TGI: 50.1 µM
A498 renal
  TGI: 71.9 µM

## O=C(O)CN(CCN(CC(=O)O)CC(=O)O)CC(=O)O.[Cu+2].[Na+]
SNB-75 CNS
  GI50: > 100 µM
  TGI: > 100 µM
MCF7 breast
  GI50: > 100 µM
  TGI: > 100 µM
HCT-116 colon
  GI50: > 100 µM
  TGI: > 100 µM
UO-31 renal
  GI50: > 100 µM
  TGI: > 100 µM
M14 melanoma
  GI50: > 100 µM
  TGI: > 100 µM
BT-549 breast
  GI50: > 100 µM
  TGI: > 100 µM
EKVX NSCLC
  GI50: > 100 µM
  TGI: > 100 µM
RXF 393 renal
  GI50: > 100 µM
  TGI: > 100 µM
KM12 colon
  GI50: > 100 µM
  TGI: > 100 µM
A498 renal
  GI50: > 100 µM
  TGI: > 100 µM

## O=C(NCCN1CCOCC1)c1cc2c(Oc3ccc(NC(=O)C4(C(=O)Nc5ccc(F)cc5)CC4)cc3)ccnc2[nH]1
SNB-75 CNS
  GI50: 0.893 µM
  TGI: 9.64 µM
MCF7 breast
  GI50: 2.36 µM
  TGI: 33.2 µM
HCT-116 colon
  GI50: 8.78 µM
  TGI: > 100 µM
UO-31 renal
  GI50: 1.15 µM
  TGI: > 32.9 µM
M14 melanoma
  GI50: 4.14 µM
  TGI: > 52.8 µM
BT-549 breast
  GI50: 7.85 µM
  TGI: > 54.8 µM
EKVX NSCLC
  GI50: 10.3 µM
  TGI: > 100 µM
RXF 393 renal
  GI50: 1.84 µM
  TGI: 19.8 µM
KM12 colon
  GI50: 0.412 µM
  TGI: > 40.9 µM
A498 renal
  GI50: 0.833 µM
  TGI: 11.8 µM

## CC[C@H](C)[C@H](NC(=O)CN(C)C)C(=O)N(C)[C@H](C[C@@H](OC(C)=O)c1nc(C(=O)NC23C4C5C2C2C3C4C52C(=O)OC)cs1)C(C)C (some centres not stated)
SNB-75 CNS
  GI50: 0.119 µM
  TGI: > 33.2 µM
MCF7 breast
  GI50: 0.134 µM
  TGI: > 33.2 µM
HCT-116 colon
  GI50: 0.201 µM
  TGI: > 33.2 µM
UO-31 renal
  GI50: 3.6 µM
  TGI: > 33.2 µM
M14 melanoma
  GI50: 0.172 µM
  TGI: > 33.2 µM
BT-549 breast
  GI50: 0.431 µM
  TGI: > 20.1 µM
EKVX NSCLC
  GI50: 2.54 µM
  TGI: > 33.2 µM
RXF 393 renal
  GI50: 0.387 µM
  TGI: > 33.2 µM
KM12 colon
  GI50: 0.74 µM
  TGI: > 33.2 µM
A498 renal
  GI50: 0.993 µM
  TGI: 21.5 µM

## CCCCCn1sc(=O)n(Cc2ccc(CNC(=O)C(C)c3ccc(CC(C)C)cc3)cc2)c1=O (configuration not stated)
SNB-75 CNS
  GI50: 0.431 µM
  TGI: 1.86 µM
MCF7 breast
  GI50: 0.56 µM
  TGI: 2.26 µM
HCT-116 colon
  GI50: 0.194 µM
  TGI: 0.72 µM
UO-31 renal
  GI50: 0.561 µM
  TGI: 1.99 µM
M14 melanoma
  GI50: 0.631 µM
  TGI: 1.92 µM
BT-549 breast
  GI50: 0.972 µM
  TGI: 2.23 µM
EKVX NSCLC
  GI50: 1.41 µM
  TGI: 2.82 µM
RXF 393 renal
  GI50: 0.727 µM
  TGI: 1.94 µM
KM12 colon
  GI50: 1.59 µM
  TGI: 3.3 µM
A498 renal
  GI50: 1.46 µM
  TGI: 2.81 µM

## COc1cc(/C=N\Nc2ccccc2)ccc1OC(=O)c1ccccc1
SNB-75 CNS
  GI50: 12.8 µM
  TGI: 61.9 µM
MCF7 breast
  GI50: 1.57 µM
  TGI: 23.7 µM
HCT-116 colon
  GI50: 5.76 µM
  TGI: > 100 µM
UO-31 renal
  GI50: 0.792 µM
  TGI: > 40.2 µM
M14 melanoma
  GI50: 0.677 µM
  TGI: 15.8 µM
BT-549 breast
  GI50: 8.34 µM
  TGI: 62.3 µM
RXF 393 renal
  GI50: 23.2 µM
  TGI: 74.6 µM
KM12 colon
  GI50: 0.778 µM
  TGI: > 68.8 µM
A498 renal
  GI50: 20 µM
  TGI: > 92.9 µM

## OC[C@H]1C[C@](O)(c2ccccc2Cl)[C@@H](c2ccccc2Cl)O1
SNB-75 CNS
  GI50: 20.9 µM
  TGI: 79.9 µM
MCF7 breast
  GI50: 27 µM
  TGI: 62.6 µM
HCT-116 colon
  GI50: 25.7 µM
  TGI: 68.6 µM
UO-31 renal
  GI50: 23 µM
  TGI: 57.4 µM
BT-549 breast
  GI50: 16.9 µM
  TGI: 37 µM
EKVX NSCLC
  GI50: 19.2 µM
  TGI: 52.2 µM
RXF 393 renal
  GI50: 18.7 µM
  TGI: 37.9 µM
KM12 colon
  GI50: 25.4 µM
  TGI: 64.8 µM
A498 renal
  GI50: 22.9 µM
  TGI: 59.2 µM

## ClC/C=C/CSc1ncnc2nc[nH]c12
SNB-75 CNS
  GI50: > 100 µM
  TGI: > 100 µM
MCF7 breast
  GI50: > 100 µM
  TGI: > 100 µM
HCT-116 colon
  GI50: > 100 µM
  TGI: > 100 µM
UO-31 renal
  GI50: > 100 µM
  TGI: > 100 µM
M14 melanoma
  GI50: > 100 µM
  TGI: > 100 µM
BT-549 breast
  GI50: > 100 µM
  TGI: > 100 µM
EKVX NSCLC
  GI50: > 100 µM
  TGI: > 100 µM
RXF 393 renal
  GI50: > 100 µM
  TGI: > 100 µM
KM12 colon
  GI50: > 100 µM
  TGI: > 100 µM
A498 renal
  GI50: > 100 µM
  TGI: > 100 µM

## O=C(CC1(O)C(=O)Nc2ccc(Cl)cc21)c1ccc(C(=O)NCC2CCC3(CC2)OOC2(CCCCC2)OO3)cc1 (configuration not stated)
SNB-75 CNS
  GI50: 1.34 µM
  TGI: 3.25 µM
MCF7 breast
  GI50: 2.37 µM
  TGI: 9.88 µM
HCT-116 colon
  GI50: 2.71 µM
  TGI: 12.3 µM
M14 melanoma
  GI50: 4.41 µM
  TGI: 24.6 µM
BT-549 breast
  GI50: 3.01 µM
  TGI: 16.1 µM
EKVX NSCLC
  GI50: 1.59 µM
  TGI: 4.3 µM
RXF 393 renal
  GI50: 2.8 µM
  TGI: 9.16 µM
KM12 colon
  GI50: 1.77 µM
  TGI: 5.22 µM
A498 renal
  GI50: 10.2 µM
  TGI: 28 µM

## COc1cccc(/C=C\C(=O)c2ccccc2)c1
SNB-75 CNS
  GI50: 8.9 µM
  TGI: 23 µM
MCF7 breast
  GI50: 2.57 µM
  TGI: 18.6 µM
HCT-116 colon
  GI50: 2.66 µM
  TGI: 8.27 µM
UO-31 renal
  GI50: 2.18 µM
  TGI: 5.96 µM
M14 melanoma
  GI50: 11.7 µM
  TGI: 28.8 µM
BT-549 breast
  GI50: 10.8 µM
  TGI: 24.3 µM
RXF 393 renal
  GI50: 2.46 µM
  TGI: 5.34 µM
KM12 colon
  GI50: 2.3 µM
  TGI: 4.91 µM
A498 renal
  GI50: 11.4 µM
  TGI: 26.2 µM

## O=C1c2ccc3c4c(ccc(c24)C(=O)N1CCCCO)C(=O)N(CCCCO)C3=O
SNB-75 CNS
  GI50: 3.12 µM
  TGI: 13.6 µM
MCF7 breast
  GI50: 1.43 µM
  TGI: 3.84 µM
HCT-116 colon
  GI50: 1.22 µM
  TGI: 6.16 µM
UO-31 renal
  GI50: 1.87 µM
  TGI: 7.65 µM
BT-549 breast
  GI50: 4.82 µM
  TGI: 17.4 µM
RXF 393 renal
  GI50: 2.08 µM
  TGI: 10.7 µM
KM12 colon
  GI50: 2.27 µM
  TGI: 10.7 µM
A498 renal
  GI50: 1.12 µM
  TGI: 2.87 µM
